Measured values from US20030158245A1, “Fused heterocyclic derivatives, their production and use” (priority 2000, published 2003).

Tests used:
[1] = test system: interstitial cells prepared from the bone marrow of the femur of normal rats; experiment: Action to promote osteogenesis: alkaline phosphatase activity in bone marrow interstitial cells; format: cell-based, Sprague-Dawley rats; design: dose or concentration left out as unconfirmed; conditions: rat bone marrow interstitial cells, compound added from day 2 for 5 days; mean ± S.E. (n = 4); all **p<0.01 vs. control
Procedure: Action to Promote Osteogenesis:
The action was determined in interstitial cells prepared from the bone marrow of the femur of normal rats by using alkaline phosphatase activity as the measure for osteogenesis. In other words, interstitial cells were prepared from the bone marrow of the femur of 7-week old male Sprague-Dawley rats according to the method of Maniatopoulos et al. [Cell Tissue Research, vol. 254, p. 317 (1988)], and cultivated in α-MEM (minimum essential medium) containing dexamethasone (10^−7 M) and β-glycerophosphoric acid (10^−2 M) to facilitate formation of the calcified osteoid tissue. After one week, the primary culture cells that reached the confluence were recovered by treating with a solution containing 0.25% trypsin and 0.2% EDTA and were subcultured in culture plates at a cell density of […] (day 0 of the cultivation). […] After the cells were washed with a phosphate buffer solution, 0.2% Nonidet P-40 was added to the cells, which were homogenized and centrifuged at 3000 rpm for 10 minutes, and the supernatant was subjected to the determination of alkaline phosphatase activity according to the method of Lowry et al. [Journal of Biological Chemistry, vol. 207, p. 19 (1954)]. Student's t-test was used for the statistical treatment.

[2] = test system: Chondromodulin-I (ChM-I) mRNA; experiment: Assay of Chondromodulin-I (ChM-I) mRNA by RT-PCR in ATDC5 cells; format: cell-based, mouse; conditions: 10^−6 M test compound; ATDC5 cells cultured 7 days; density of ChM-I band determined by bioimaging; no test compound added = 0
Procedure: Assay of Chondromodulin-I (ChM-I) mRNA:
ATDC5, a substrain derived from mouse teratocarcinoma cell line AT805, was used. ATDC5 cells were cultured at 37° C. for 7 days in the presence of the test compound using a 1:1 mixed medium of Dulbecco's modified Eagle's medium/Ham's F-12 medium containing 5% heat-inactivated fetal bovine serum and 20 μg/ml gentamycin under a condition of 5% carbon dioxide and 95% air. After the cultivation was completed, cells were collected, from which RNA was recovered by using an RNeasy mini kit (manufactured by Quiagen Company), followed by DNAase treatment using MessageClean Kit (manufactured by Genhunter Company) to obtain the total RNA. The amount of ChM-I mRNA in the total RNA was determined by the RT-PCR method. First, cDNA was synthesized from the RNA preparation by reverse transcription reaction using TaKaRa PCR Kit (AMV) ver. 2.1 and random 9-mers (manufactured by Takara Shuzo Co., Ltd.) according to the instruction for the kit. Next, ChM-I gene was amplified specifically by using HotStarTaq DNA polymerase (manufactured by Quiagen company). The following primers were used for the amplification of ChM-I gene: […]
The amplification reaction was carried out in a GeneAmp PCR System 2400 (manufactured by Perkin Elmer Inc.) after warming at 95° C. for 15 minutes, which was followed by 32 repeating reaction cycles of 95° C. for 20 seconds, 58° C. for 10 seconds and 72° C. for 30 seconds. The thus-obtained PCR product was separated by electrophoresis on 2% agarose gel containing ethidium bromide, and the fluorescence intensity of the DNA fragment, which appeared by ultraviolet irradiation at the location corresponding the size (212 bp) expected from the base sequence of mouse ChM-I, was determined. The activity of the test compound to enhance ChM-I expression is expressed as the density of ChM-I band as determined by bioimaging (Table 49). […]

Row | SMILES | melting point | Alkaline phosphatase activity (A405) [1] | ChM-I expression-enhancing activity [2]
1 | CC(C)(C)OC(=O)c1sc(Nc2ccc(Cl)cc2)c2c1CCc1cnoc1-2 [Example 3, 8-(4-Chlorophenylamino)-4,5-dihydrothieno[3,4-g]-1,2-benzisoxazole-6-carboxylic Acid t-butyl Ester] | 197 to 198 °C | – | –
2 | CC(C)(C)OC(=O)c1sc(Nc2ccccc2)c2c1CCc1cnoc1-2 [Example 4, 4,5-Dihydro-8-phenylaminothieno[3,4-g]-1,2-benzisoxazole-6-carboxylic Acid t-butyl Ester] | 148 to 149 °C | – | –
3 | CN(C(=O)c1ccccc1)c1sc(C(=O)O)c2c1-c1oncc1CC2 [Example 11, 8-[(N-Benzoyl-N-methyl)amino]-4,5-dihydrothieno[3,4-g]-1,2-benzisoxazole-6-carboxylic Acid] | 232 to 233 °C (dec.) | – | –
4 | O=C(O)c1sc(Nc2ccc(Cl)cc2)c2c1CCc1cnoc1-2 [Example 12, 8-(4-Chlorophenylamino)-4,5-dihydrothieno[3,4-g]-1,2-benzisoxazole-6-carboxylic Acid] | 232 to 233 °C (dec.) | – | –
5 | O=C(O)c1sc(Nc2ccccc2)c2c1CCc1cnoc1-2 [Example 13, 4,5-Dihydro-8-phenylaminothieno[3,4-g]-1,2-benzisoxazole-6-carboxylic Acid] | 211 to 212 °C (dec.) | – | –
6 | O=C(O)c1sc(N(C(=O)OCc2ccccc2)c2ccccc2)c2c1CCc1c[nH]nc1-2 [Example 14, 8-[(N-Benzyloxycarbonyl-N-phenyl)amino]-4,5-dihydro-1H-thieno[3,4-g]indazole-6-carboxylic Acid] | 278 to 279 °C | – | –
7 | CN(C(=O)c1ccccc1)c1sc(C(N)=O)c2c1-c1oncc1CC2 [Example 18, 8-[(N-Benzoyl-N-methyl)amino]-4,5-dihydrothieno[3,4-g]-1,2-benzisoxazole-6-carboxamide] | 197 to 198 °C | – | –
8 | NC(=O)c1sc(Nc2ccc(Cl)cc2)c2c1CCc1cnoc1-2 [Example 19, 8-(4-Chlorophenylamino)-4,5-dihydrothieno[3,4-g]-1,2-benzisoxazole-6-carboxamide] | 224 to 225 °C | – | –
9 | NC(=O)c1sc(N(C(=O)OCc2ccccc2)c2ccccc2)c2c1CCc1c[nH]nc1-2 [Example 21, 8-[(N-Benzyloxycarbonyl-N-phenyl)amino]-4,5-dihydro-1H-thieno[3,4-g]indazole-6-carboxamide] | 240 to 241 °C | – | –
10 | Cn1cc2c(n1)-c1c(N(C(=O)OCc3ccccc3)c3ccccc3)sc(C(N)=O)c1CC2 [Example 22, 8-[(N-Benzyloxycarbonyl-N-phenyl)amino]-4,5-dihydro-2-methyl-2H-thieno[3,4-g]indazole-6-carboxamide] | 220 to 221 °C | – | –
11 | Cn1ncc2c1-c1c(Nc3ccccc3)sc(C(N)=O)c1CC2 [Example 28, 4,5-Dihydro-1-methyl-8-phenylamino-1H-thieno[3,4-g]indazole-6-carboxamide] | 140 to 141 °C | – | –
12 | NC(=O)c1sc(Nc2ccccc2)c2c1CCc1cn[nH]c1-2 [Example 29, 4,5-Dihydro-8-phenylamino-1H-thieno[3,4-g]indazole-6-carboxamide] | 233 to 234 °C | – | –
13 | CNC(=O)c1sc(Nc2ccccc2)c2c1CCc1cnoc1-2 [Example 33, N-Methyl-4,5-dihydro-8-(phenylamino)thieno[3,4-g]-1,2-benzisoxazole-6-carboxamide] | 193 to 194 °C | – | –
14 | CCCS(=O)(=O)c1sc(C(N)=O)c2c1-c1c(cnn1C)CC2 [Example 70, 4,5-Dihydro-1-methyl-8-n-propylsulfonyl-1H-thieno[3,4-g]indazole-6-carboxamide] | – | 0.25 ± 0.02** | 47
15 | CCOC(=O)c1sc(C)c2c1CCc1cnn(C)c1-2 [Example 73, 4,5-Dihydro-1,8-dimethyl-1H-thieno[3,4-g]indazole-6-carboxylic Acid Ethyl Ester] | 118 to 119 °C | – | –
16 | CCCCc1sc(C(=O)OCC)c2c1-c1c(cnn1C)CC2 [Example 78, 8-n-Butyl-4,5-dihydro-1-methyl-1H-thieno[3,4-g]indazole-6-carboxylic Acid Ethyl Ester] | 80 to 81 °C | – | –
17 | CCOC(=O)c1sc(C)c2c1CCc1cnn(CC(F)(F)F)c1-2 [Example 127, 4,5-Dihydro-8-methyl-1-(2,2,2-trifluoroethyl)-1H-thieno[3,4-g]indazole-6-carboxylic Acid Ethyl Ester] | 120 to 121 °C | – | –
18 | CCOC(=O)c1sc(C)c2c1CCc1cnn(Cc3ccccc3)c1-2 [Example 128, 1-Benzyl-4,5-dihydro-8-methyl-1H-thieno[3,4-g]indazole-6-carboxylic Acid Ethyl Ester] | 131 to 132 °C | – | –
19 | CCOC(=O)N1C2=C(CCc3csc(Oc4ccccc4)c32)CN1C [Example 143, 4,5-dihydro-2-methyl-8-phenoxy-2H-thieno[3,4-g]indazole-1-carboxylic Acid Ethyl Ester] | 89 to 90 °C | – | –
20 | CC(=O)c1sc(Oc2ccc3c(c2)OCO3)c2c1CCc1cnn(C)c1-2 [Example 251, 1-[4,5-Dihydro-8-(3,4-methylenedioxyphenoxy)-1-methyl-1H-thieno[3,4-g]indazol-6-yl]-1-ethanone] | – | 1.33 ± 0.13** | 87
21 | CCNC(=O)c1sc(Oc2ccc3c(c2)OCO3)c2c1CCc1cnn(C)c1-2 [Example 255, N-ethyl-4,5-dihydro-8-(3,4-methylenedioxyphenoxy)-1-methyl-1H-thieno[3,4-g]indazole-6-carboxamide] | – | 1.82 ± 0.06** | 106
22 | CCOC(=O)c1sc(OC)c2c1CCc1cnn(C)c1-2 [Example 263] | 82 to 84 °C | – | –
23 | COc1sc(C(=O)O)c2c1-c1c(cnn1C)CC2 [Example 271] | 250 to 252 °C | – | –
24 | COc1sc(C(N)=O)c2c1-c1c(cnn1C)CC2 [Example 279] | 154 to 156 °C | – | –
25 | Cn1cc2c(n1)-c1c(Oc3ccc(C=O)cc3)sc(C(N)=O)c1CC2 [Example 380, 8-(4-Formylphenoxy)-4,5-dihydro-2-methyl-2H-thieno[3,4-g]indazole-6-carboxamide] | 210 to 211 °C | – | –
26 | CC(C)OP(=O)(/C=C/c1ccc(Oc2sc(C(N)=O)c3c2-c2nn(C)cc2CC3)cc1)OC(C)C [Example 380, 8-{4-((E)-2-diisopropoxyphosphorylvinyl)phenoxy}-4,5-dihydro-2-methyl-2H-thieno[3,4-g]indazole-6-carboxamide] | 216 to 217 °C | – | –
27 | Cn1ncc2c1-c1c(csc1S(C)(=O)=O)CC2 [Example 490, 1-Methyl-8-methylsulfonyl-4,5-dihydro-1H-thieno[3,4-g]indazole] | 192 to 193 °C | – | –
